{"source": "patent US20040259790A1", "about": "“Methods for identifying and administering agents that bias the immune response via dendritic cells” (priority 2003, published 2004)", "key": {"[1]": {"system": "ERK1/2", "assay": "IL-12(p70) production by stimulated DCs with ERK1/2 inhibitor", "assay_type": "cell-based, human", "settings": "inhibitor 1 h before stimulus"}, "[2]": {"system": "naïve, allogeneic CD4+ CD45RA+ CD45RO− T cells", "assay": "DC-T cell cultures: T-cell proliferation and Th1/Th2 cytokines", "assay_type": "cell-based, human", "settings": "for IFNγ in DC-T cell culture: DCs stimulated 48 h, then 5 days with naive CD4+ T cells"}, "[3]": {"system": "human monocyte-derived DCs", "assay": "Cytokine production by DCs (ELISA)", "assay_type": "cell-based"}, "[4]": {"system": "OVA-specific CD8+ T cells", "assay": "Antigen-specific CD8+ T cell responses in vivo (OT-1 adoptive transfer)", "parameters": "species or system mice", "settings": "for clonal expansion of OVA-specific CD8+ T cells: i.p. with OVA257-264 50 μg, E. coli LPS 25 μg or Pam-3-cys 50 μg, day 4"}, "[5]": {"system": "ERK1/2", "assay": "MAP-kinase signaling in DCs: ERK1/2 phosphorylation", "assay_type": "cell-based, human", "settings": "0.25, 1 and 4 h stimulation"}, "[6]": {"system": "splenic CD11c+ CD11b+ and CD11c+ CD11b− DC subsets", "assay": "Activation of splenic DC subsets in vivo"}, "[7]": {"system": "human monocyte-derived DCs", "assay": "DC phenotype/maturation by flow cytometry (CD80, CD86, CD83)", "assay_type": "cell-based", "settings": "immature DCs cultured 48 h with stimulus", "experimental": "Isolation and culture of human monocyte-derived DCs: CD14^+ monocytes were enriched from peripheral blood mononuclear cells (PBMCs), using an enrichment step, and cultured in six well plates (1×10^6 cells/well) for six days with recombinant Human GM-CSF at 100 ng/ml (PeproTech, NJ) and recombinant Human IL-4 at 20 ng/ml (PeproTech, NJ). At day six, the cultures consisted uniformly of CD1a^+CD14^−, HLA-DR^+ CD11c^+ cells, which were negative for CD83, the human DC maturation marker, and expressed intermediate levels of such costimulatory molecules as CD86 (Rissoan et al., Science 283:1183-1186, 1999). On day six, the immature DCs were pulsed with E. coli LPS ([…]), flagellin ([…]), Pam3cys ([…]), or SEA ([…]) for 48 hours.\nDC phenotype: The phenotype of DCs was determined by flow cytometry using a Facscalibur (BD Pharmingen, CA). Briefly, gated CD1a^+CD14^−, CD11c^+ HLA-DR^+ DCs were analyzed for the expression of CD80, CD86, CD83 and CD40. All antibodies, including the PE-labeled isotype controls were purchased from BD Pharmingen (La Jolla, Calif.).\nIsolation and culture of human monocyte-derived DCs: CD14^+ monocytes were enriched from peripheral blood mononuclear cells, and cultured for 6 days with recombinant human GM-CSF at 100 ng/ml (PeproTech, NJ) plus recombinant human IL-4, at 20 ng/ml (PeproTech). At day 6, the cultures consisted uniformly of CD1a^+ CD14^−, HLA-DR^+ CD11c^+ cells, which were negative for CD83. These immature DCs were pulsed with Ec.LPS (1 μg/ml), flagellin (0.5 μg/ml), Pam3cys (20 μg/ml), or SEA (100 μg/ml) for 48 h.\nDC phenotype: This was determined by flow cytometry using a Facscalibur (BD Pharmingen, CA). Briefly, gated CD1a^+CD14^−, C11c+ HLA-DR^+DCs were analyzed for the expression of CD80, CD86, CD83 and CD40 (BD Pharmingen, La Jolla, Calif.)."}, "[8]": {"system": "OVA-specific CD4+ T cells", "assay": "Antigen-specific CD4+ T cell responses in vivo (OT-2 adoptive transfer)", "parameters": "species or system mice"}, "[9]": {"system": "JNK1/2", "assay": "MAP-kinase signaling in DCs: JNK1/2 phosphorylation (western blot)", "assay_type": "cell-based, human"}, "[10]": {"system": "p38 MAP kinase", "assay": "MAP-kinase signaling in DCs: p38 phosphorylation", "assay_type": "cell-based, human"}, "[11]": {"system": "c-Fos", "assay": "Flow cytometric evaluation of c-Fos expression in DCs", "assay_type": "cell-based, human", "settings": "for phosphorylated c-Fos expression in DCs: flow cytometry"}, "[12]": {"settings": "very high doses, which induced high levels of CD83"}, "[13]": {"settings": "mice injected with OVA257-264 + stimulus"}, "[14]": {"settings": "mice injected with OVA323-339 + stimulus"}}, "note": "Entries after “also recorded” stand apart in the source; their conditions may differ. Where two headings read alike, the source gives them in different places."}
{"molecule": "N#CC(=C(/N)Sc1ccccc1N)/C(C#N)=C(\\N)Sc1ccccc1N", "note": "[U0126]", "values": [{"measurement": "IL-12(p70) production induced by Pam3cys when ERK1/2 is blocked", "setting": "[1]", "result": "significantly enhances IL-12(p70) production"}, {"measurement": "IL-12(p70) production induced by SEA when ERK1/2 is blocked", "setting": "[1]", "result": "did not result in consistent increases in IL-12(p70)"}]}
{"molecule": "S-[2,3-bis(palmitoyloxy)-(2-RS)-propyl]-N-palmitoyl-R-Cys-S-Ser-Lys4-OH [Pam3cys]", "values": [{"measurement": "IL-5 in DC-T cell culture", "setting": "[2]; Example 1, FIG. 2B", "result": "high levels"}, {"measurement": "IL-13 in DC-T cell culture", "setting": "[2]; Example 1, FIG. 2B", "result": 1458, "unit": "pg/mL"}, {"measurement": "IFNγ in DC-T cell culture", "setting": "[2]; Example 1, FIG. 2B", "result": "high levels"}, {"measurement": "IL-5 in DC-T cell culture", "setting": "[2]; Example 2, FIG. 8b", "result": 600, "unit": "pg/mL"}, {"measurement": "IL-13 in DC-T cell culture", "setting": "[2]; Example 2, FIG. 8b", "result": 600, "unit": "pg/mL"}, {"measurement": "IFNγ in DC-T cell culture", "setting": "[2]; Example 2, FIG. 8b", "result": "approximately 2000 pg/ml"}, {"measurement": "Th1 responses induced by DCs stimulated at very high doses", "setting": "[2]; [12]", "result": "did not induce Th1 responses"}, {"measurement": "IL-12 induced in DCs at 10 hrs", "setting": "[3]; 10 hrs, no inhibitor", "result": "did not induce any IL-12"}, {"measurement": "IL-12 induced in DCs at 24 hrs", "setting": "[3]; 24 hrs, no inhibitor", "result": "20 to 100", "unit": "pg/mL"}, {"measurement": "IL-10 secreted by DCs", "setting": "[3]; 48 h with stimulus, ELISA", "result": "induced"}, {"measurement": "TNF-α secreted by DCs", "setting": "[3]; 48 h with stimulus, ELISA", "result": "much weaker levels"}, {"measurement": "IL-12(p70) secreted by DCs", "setting": "[3]; 48 h with stimulus, doses giving equivalent IL-6, ELISA", "result": "little or no IL-12(p70)"}, {"measurement": "IL-12(p70) secreted by DCs at very high doses of stimulus", "setting": "[3]; [12]", "result": "did not induce IL-12(p70)"}, {"measurement": "bias of the CD8+ Tc response in vivo", "setting": "[4]; OT-1", "result": "shift the balance towards the Tc2 pathway"}, {"measurement": "ratio IFNγ: IL-4", "setting": "[4]; OT-1, FIG. 13D", "result": 28}, {"measurement": "ratio IFNγ: IL-5", "setting": "[4]; OT-1, FIG. 13D", "result": 21}, {"measurement": "ratio IFNγ: IL-13", "setting": "[4]; OT-1, FIG. 13D", "result": 4}, {"measurement": "clonal expansion of OVA-specific CD8+ T cells", "setting": "[4]", "result": "induced clonal expansion"}, {"measurement": "clonal expansion of OVA-specific CD8+ T cells", "setting": "[4]; listed as Pam-cys", "result": "enhanced the clonal expansion"}, {"measurement": "IFNγ in restimulated spleen cell culture", "setting": "[4]; [13]", "result": "lower levels of IFNγ"}, {"measurement": "IL-4, IL-5 and IL-13 in restimulated spleen cell culture", "setting": "[4]; [13]", "result": "relatively higher levels of IL-4, IL-5 and IL-13"}, {"measurement": "in vitro proliferative capacity of OVA-specific CD8+ T cells", "setting": "[4]; spleen cells restimulated with OVA257-264, versus OVA257-264 alone", "result": "greatly enhanced responses"}, {"measurement": "ERK1/2 phosphorylation in DCs", "setting": "[5]", "result": "much higher magnitude and duration of phosphorylation (which was sustained even at 4 hours); also recorded: much higher magnitude and duration of phosphorylation, (which was sustained even at 4 h)"}, {"measurement": "induction of CD86 and I-Ab on splenic DC subsets", "setting": "[6]; TLR-2 deficient (TLR2−/−) mice", "result": "severely impaired; also recorded: severely reduced"}, {"measurement": "CD86 and MHC class II (I-Ab) expression on splenic DC subsets", "setting": "[6]; wild type mice, E. coli LPS 25 μg, Pam-3-cys 50 μg, 6 hours", "result": "equivalent up-regulation of CD86 and MHC class II; also recorded: upregulated CD86 and I-Ab expression"}, {"measurement": "CD80 expression on DCs", "setting": "[7]", "result": "also weaker"}, {"measurement": "CD86 expression on DCs", "setting": "[7]", "result": "much lower levels of CD86"}, {"measurement": "DC maturation (maturation marker CD83)", "setting": "[7]", "result": "weaker than that induced by E. coli LPS or flagellin; also recorded: weaker than that induced by Ec.LPS or flagellin"}, {"measurement": "bias of the CD4+ Th response in vivo", "setting": "[8]; OT-2", "result": "preferential bias towards the Th2 pathway"}, {"measurement": "ratio IFNγ: IL-4", "setting": "[8]; OT-2, FIG. 12D", "result": 40}, {"measurement": "ratio IFNγ: IL-5", "setting": "[8]; OT-2, FIG. 12D", "result": 18}, {"measurement": "ratio IFNγ: IL-13", "setting": "[8]; OT-2, FIG. 12D", "result": 1.2}, {"measurement": "IL-4 and IL-5 in restimulated spleen cell culture", "setting": "[8]; OT-2, relative to OVA323-339+E. coli LPS, p<0.01", "result": "relatively higher levels of IL-4 and IL-5"}, {"measurement": "clonal expansion of OVA-specific CD4+ Thy-1.2+ T cells in spleen", "setting": "[8]; i.p. with OVA323-339 50 μg, E. coli LPS 25 μg or Pam-3-cys 50 μg, day 4", "result": "significantly enhanced the clonal expansion; also recorded: induced clonal expansion"}, {"measurement": "IFNγ in restimulated spleen cell culture", "setting": "[8]; [14]", "result": "much lower levels of IFNγ"}, {"measurement": "IL-5 in restimulated spleen cell culture", "setting": "[8]; [14]", "result": "~70", "unit": "pg/mL"}, {"measurement": "IL-4 in restimulated spleen cell culture", "setting": "[8]; mice injected with OVA323-339 + stimulus, ELISA sensitivity 8 pg/ml", "result": "~30", "unit": "pg/mL"}, {"measurement": "in vitro proliferative capacity of OVA-specific CD4+ T cells", "setting": "[8]; spleen cells restimulated with OVA, versus OVA323-339 alone", "result": "greatly enhanced responses"}, {"measurement": "JNK1 phosphorylation in DCs", "setting": "[9]; Example 2, FIG. 9c, western blot", "result": "very weak"}, {"measurement": "phosphorylation of p38 MAP kinase in DCs", "setting": "[10]; 0.25, 1 and 4 h stimulation, phosphorylated to total ratio, ELISA", "result": "rapid burst of p38 phosphorylation at 15 minutes, which rapidly declined to near baseline levels by 1 hour"}, {"measurement": "phosphorylation of p38 MAP kinase in DCs", "setting": "[10]; 0.25, 1 and 4 h stimulation, phosphorylated to total ratio, ELISA, listed as Pam-3-cys", "result": "enhanced phosphorylation of p38 MAP kinase"}, {"measurement": "c-Fos expression in DCs at 4 hours", "setting": "[11]; 4 h of stimulation", "result": "maintained, even at 4 hours; also recorded: maintained even at 4 hrs"}, {"measurement": "phosphorylated c-Fos expression in DCs", "setting": "[11]", "result": "expressed at significant levels"}, {"measurement": "total c-Fos expression (mean fluorescence intensity, fraction of cells) in DCs", "setting": "[11]; peak, 2 hrs of stimulation, versus E. coli LPS or flagellin", "result": "much greater"}]}
{"molecule": "flagellin", "values": [{"measurement": "type of Th response induced by stimulated DCs", "setting": "[2]", "result": "typical Th1 profile"}, {"measurement": "IL-10 secreted by DCs", "setting": "[3]", "result": "induced"}, {"measurement": "IL-12(p70) secreted by DCs", "setting": "[3]", "result": "approximately 1000 pg/ml"}, {"measurement": "TNF-α secreted by DCs", "setting": "[3]", "result": "strongly induced"}, {"measurement": "JNK1 phosphorylation in DCs", "setting": "[9]", "result": "high levels"}, {"measurement": "JNK 2 phosphorylation in DCs", "setting": "[9]", "result": "higher levels of JNK 2"}, {"measurement": "phosphorylation of JNK1 and 2 in DCs", "setting": "[9]", "result": "higher levels of JNK1 and 2"}, {"measurement": "phosphorylation of p38 MAP kinase in DCs", "setting": "[10]", "result": "enhanced phosphorylation of p38 MAP kinase, which peaked at 15 minutes, and was sustained at levels well above baseline, even at 4 hours"}, {"measurement": "ratio of p38:ERK phosphorylation in DCs", "setting": "[10]", "result": "much higher ratios of p38:ERK1/2"}, {"measurement": "phosphorylated c-Fos expression in DCs", "setting": "[11]", "result": "not expressed"}]}
